{
  "source": "patent US20140350454A1",
  "about": "“IRRADIATION APPARATUS” (Photocure ASA, priority 2011, published 2014)",
  "origin": "cited, not measured here",
  "key": {"VIN [1]": {"system": "VIN", "conditions": "VIN patients, topical 5-ALA 20% w/w in Unguentum Merck, 4 hours incubation, 630 nm non-laser light"}, "lesions of VIN 1-3": {"system": "lesions of VIN 1-3", "conditions": "25 patients, 111 lesions of VIN 1-3; 10 ml 5-ALA solution 20% w/w in saline, 4-5 hours under occlusion; 635 nm laser, 100 J/cm^2, 150 mW/cm^2; repeated PDT"}, "VIN [2]": {"system": "VIN", "conditions": "bioadhesive patch 38 mg/cm^2 5-ALA in dry form, in situ 4-6 hours; 630 nm non-laser lamp, 20-30 min, 100 J/cm^2; repeated PDT"}},
  "note": "Read-outs that look alike come from different tables or passages of the source.",
  "data": [
    {"smiles": "NCC(=O)CCC(=O)O", "note": "[5-ALA, 5-aminolevulinic acid]", "values": [
      {"measurement": "response rate", "setting": "VIN [1]; light dose 50 J/cm^2", "result": "unacceptably low"},
      {"measurement": "clearance rate", "setting": "VIN [1]; light dose 100 J/cm^2", "result": "40-60%"},
      {"measurement": "complete response (of the patients)", "setting": "lesions of VIN 1-3", "result": 52, "unit": "%"},
      {"measurement": "clearance rate", "setting": "VIN [2]", "result": 52, "unit": "%"}
    ]}
  ]
}
